Assay results from patent US4719048A, “Crysene compound” (Burroughs Wellcome Co., priority 1984, dated 1988).
Structures can show the parent of a compound that is named as a salt.

Key:
[1] = test system: P388/0 tumor cells (lymphocytic leukemia); experiment: Lymphocytic Leukemia P388/0 Test (survival of tumor-bearing mice); assay type: in vivo, mouse (CD2-F1); details: ip, days 1, 5, 9; at optimal dose (mg/kg): 1B 121; 1C 115; 2 100; 3 100; 6G 65; 18B 88; 19H 110; 6H 60; 7 110; 9 300; 10B 1013; 11C 150; 12G 90; 5F 225; 13D 303; 14 196; 15B 250; 16 1012; 4B 180; active if ≥120%
Excerpt: (§1) Methods for evaluating the antitumor activity of these compounds are essentially those used in the Tumor Panel by the Developmental Therapeutics Program, Division of Cancer Treatment, National Cancer Institute, A. Goldin, et al., Methods in Cancer Research, Vol. XVI, p. 165, Academic Press (1979). Some modifications, in dose level and schedule have been made to increase the testing efficiency.
(§2) CD2-F1 mice, of the same sex, weighing 20±3 g, are used for this test. Control and test animals are injected intraperitoneally with a suspension of ~10^6 viable P388/0 tumor cells on day 0. In each test, several dose levels which bracket the LD20 of the compound are evaluated; each dose level group contains six animals. The test compounds are prepared either in physiologic saline containing 0.05% Tween 80 or distilled water containing 5% dextrose and are administered intraperitoneally on days 1, 5, and 9 relative to tumor implant. Doses are on a mg/kg basis according to individual animals' body weights. The day of death for each animal is recorded, the median identified for each group and the ratios of median survival time for treated (T)/control (C) groups are calculated. The criterion for activity is T/C×100≥120%.

LD20 in the P388/0 test = assay type: in vivo, mouse (CD2-F1); details: ip, days 1, 5 and 9
Experimental: as §2
^A Values in parentheses are the highest nontoxic dose where the
LD20 was not determined.

Colon 38 carcinoma = experiment: Colon 38 Carcinoma Test (tumor weight); assay type: in vivo, mouse (tumor from C57B1/6); details: ip, days 1, 5, 9; dose 120 mg/kg; day 20; active if ≤42%
Excerpt: as §1
This chemically-induced tumor arose in a C57B1/6 mouse and is maintained as a solid tumor in that mouse strain. The subcutaneously growing solid tumor is aseptically excised from passage mice and placed in sterile saline. The tumor is trimmed free of visible necrotic and connective tissue, then divided into 2-3 mm cubes. A cube is implanted subcutaneously in the ventral thoracic region with a sterile trochar on day 0. In each test several dose levels which bracket the LD20 for the compound are evaluated. Ten animals are included in each dose level group and thirty animals in the untreated control group. The test compounds are prepared either in physiologic saline containing 0.05% Tween 80 or distilled water containing 5% dextrose and are administered intraperitoneally on days 1, 5 and 9 after tumor implant. […] At day 20, the animals are sacrificed and the longest (L) and shortest (W) dimensions of each tumor measured with vernier calipers. Tumor weight is calculated from the formula [formula] […]

B16 melanoma cells = experiment: Melanotic Melanoma B16 test (survival); assay type: in vivo, mouse (B6C3-F1); details: B16 ip; drug ip days 1, 5, 9; dose (mg/kg): 1C 100; 6G 50; 3 70; 2 75; 18B 70; active if >125%
Excerpt: as §1
B6C3-F1 mice of the same sex, weighing 20±3 g, are used for this test. A suspension of B16 cells is prepared from a non-necrotic portion of solid tumor tissue obtained from a passage mouse. One gram of tumor is homogenized in 9 mL ice-cold Earle's salts solution and filtered through 1000 mesh screen to remove debris. 0.5 mL of the resulting brei is injected intraperitoneally into each animal. Dosing is carried out as in the P388/0 and L1210 tests. Days of death are recorded for a 60 day period and T/C ratio calculated as in the P388/0 and L1210 tests. The criterion for activity is T/C×100>125%.

| Compound | T/C × 100% (Excluding 30 Day Survivors), median survival time treated/control [1] | LD20 (LD20 in the P388/0 test) [mg/kg] | other results |
| --- | --- | --- | --- |
| CS(=O)(=O)O.C[C@H](O)[C@@](C)(CO)NCc1cc2c3ccccc3ccc2c2ccccc12 (relative stereo) [Example 6H, (+-)(2R*,3S*)-2-((6-chrysenylmethyl)amino)-2-methyl-1,3-butanediol methanesulfonate] | +235% | 60 | – |
| CC(CO)(CCO)NCc1cc2c3ccccc3ccc2c2ccccc12 (stereo not drawn) [Example 12G, 2-((6-chrysenylmethyl)amino)-2-methyl-1,4-butanediol hydrochloride.1/3EtOH] | – | 90 | – |
| CC(CO)(CO)NCc1cc2c3ccccc3ccc2c2ccccc12 [Example 1C, 2-((6-chrysenylmethyl)amino)-2-methyl-1,3-propanediol methanesulfonate] | – | – | T/C × 100% (tumor weight) (Colon 38 carcinoma): 36% |
| O[C@@H]1CCC[C@H](O)[C@H]1NCc1cc2c3ccccc3ccc2c2ccccc12 [Example 10B, (1α,2β,3α)-2-((6-chrysenylmethyl)amino)-1,3-cyclohexanediol hydrochloride] | +205% | – | – |
| CC(CO)(CO)NCc1cc2c3ccccc3c(Cl)cc2c2ccccc12 [Example 4B, 2-(((12-chloro-6-chrysenyl)methyl)amino)-2-methyl-1,3-propanediol methanesulfonate.1/3H2 O] | +155% | 180 | – |
| OCC(CO)NCc1cc2c3ccccc3ccc2c2ccccc12 [Example 14, 2-((6-chrysenylmethyl)amino)-1,3-propanediol methanesulfonate] | – | 160 | – |
| CS(=O)(=O)O.C[C@H](O)C(NCc1cc2c3ccccc3ccc2c2ccccc12)[C@@H](C)O (stereo partly drawn) [Example 13D, meso-3-((6-chrysenylmethyl)amino)-2,4-pentanediol methanesulfonate] | +200% | – | – |
| CC(C)C(CO)(CO)NCc1cc2c3ccccc3ccc2c2ccccc12 [Example 11C, 2-((6-chrysenylmethyl)amino)-2-isopropyl-1,3-propanediol hydrochloride.H2 O] | – | 150 | – |
| CC(CO)(CO)NCc1ccc2ccc3c4ccccc4ccc3c2c1 [Example 19H, 2-((3-chrysenylmethyl)amino)-2-methyl-1,3-propanediol methanesulfonate] | – | 150 | – |
| C[C@@H](O)[C@@](C)(CO)NCc1cc2c3ccccc3ccc2c2ccccc12.Cl (relative stereo) [Example 7, (+-)-(2R*,3R*)-2-((6-chrysenylmethyl)amino)-2-methyl-1,3-butanediol hydrochloride] | +285% | 100 | – |
| COCC(C)(CO)NCc1cc2c3ccccc3ccc2c2ccccc12.Cl (stereo not drawn) [Example 9D, 3-methoxy-2-((6-chrysenylmethyl)amino)-2-methyl-1-propanol hydrochloride] | +181% | – | – |
| CCc1cc2c3ccccc3c(CNC(C)(CO)CO)cc2c2ccccc12 [Example 15B, 2-(((12-ethyl-6-chrysenyl)methyl)amino)-2-methyl-1,3-propanediol methanesulfonate] | – | 150 | – |
| CC(CO)(CO)NCc1cc2c3ccccc3ccc2c2ccccc12.Cl [Example 1B, 2-((6-chrysenylmethyl)amino)-2-methyl-1,3-propanediol hydrochloride] | – | 140 | – |
| CCC(CO)(CO)NCc1cc2c3ccccc3ccc2c2ccccc12.Cl [Example 3, 2-((6-chrysenylmethyl)amino)-2-ethyl-1,3-propanediol hydrochloride] | – | 100 | – |
| CC(=O)OCC(C)(COC(C)=O)NCc1cc2c3ccccc3ccc2c2ccccc12 [Example 16, 2-((6-chrysenylmethyl)amino)-2-methyl-1,3-propanediol diacetate] | +145% | – | – |
| Cl.OCC(CO)(CO)NCc1cc2c3ccccc3ccc2c2ccccc12 [Example 2, 2-((6-chrysenylmethyl)amino)-2-hydroxymethyl-1,3-propanediol hydrochloride] | – | 100 | – |
| CC(C)(CO)NCc1cc2c3ccccc3ccc2c2ccccc12.Cl [Example 18B, 2-((6-chrysenylmethyl)amino)-2-methyl-1-propanol hydrochloride] | – | 80 | – |
| C[C@H](O)[C@@](C)(CO)NCc1cc2c3ccccc3ccc2c2ccccc12 (relative stereo) [Example 6G, (+-)(2R*,3S*)-2-((6-chrysenylmethyl)amino)-2-methyl-1,3-butanediol hydrochloride.1/3H2 O] | +245% | 53 | T/C × 100% Excluding 60 day Survivors (B16 melanoma cells): +160% |
| C[C@@H](O)C(C)(NCc1cc2c3ccccc3ccc2c2ccccc12)[C@@H](C)O (relative stereo) [Example 5F] | +255% | – | – |
